Laboratory results published in ChEMBL document CHEMBL1158217, “Tetranortriterpenoids from Ruagea glabra” (1996).

System: Spodoptera frugiperda
Test: Antifeedant activity against Spodoptera frugiperda final instar larvae at 100 ppm after 18 hrs by glass fiber disk method
Type: functional
Parameters: unit not given here

| SMILES | Activity |
| --- | --- |
| C=C1[C@@H]2CC[C@@]3(C)[C@H](c4ccoc4)OC(=O)C[C@]13O[C@H]1CC(=O)C(C)(C)[C@H](CC(=O)OC)[C@]12C [METHYLANGOLENSATE] | 66.4 |
| COC(=O)C[C@H]1C(C)(C)[C@H](OC(=O)C(C)C)[C@H]2C(=O)[C@]1(C)[C@H]1CC[C@]3(C)[C@@H](CC(=O)O[C@H]3c3ccoc3)[C@]13O[C@H]23 [RUAGEANIN A] | 72.6 |
| C/C=C(\C)C(=O)O[C@H]1C(C)(C)[C@H](CC(=O)OC)[C@]2(C)C(=O)[C@@]1(O)[C@H]1O[C@]13[C@@H]1CC(=O)O[C@@H](c4ccoc4)[C@]1(C)CC[C@H]23 [RUAGEANIN B] | 86.3 |
| COC(=O)C[C@H]1C(C)(C)[C@H](OC(C)=O)[C@H]2C(=O)[C@]1(C)[C@H]1CC[C@]3(C)[C@@H](CC(=O)O[C@H]3c3ccoc3)[C@]13O[C@H]23 [XYLOCARPIN] | 77.8 |
